According to US20210181180A1, “METHOD FOR IDENTIFYING MALODOUR COUNTERACTANTS” (TAKASAGO INTERNATIONAL CORPORATION, priority 2016, published 2021):

Target: T1, OR4E2 (Homo sapiens, UniProt Q8NGC2, Q234R/V118M)
T1 construct: expressed in transfected cells; host or cells: HEK293T cells expressing hRTP1s, transiently transfected with pcDNA5-OR4E2 and pNL(NlucP/CRE/Hygro)
T1 sequence (Q8NGC2 1-313 V118M/Q234R): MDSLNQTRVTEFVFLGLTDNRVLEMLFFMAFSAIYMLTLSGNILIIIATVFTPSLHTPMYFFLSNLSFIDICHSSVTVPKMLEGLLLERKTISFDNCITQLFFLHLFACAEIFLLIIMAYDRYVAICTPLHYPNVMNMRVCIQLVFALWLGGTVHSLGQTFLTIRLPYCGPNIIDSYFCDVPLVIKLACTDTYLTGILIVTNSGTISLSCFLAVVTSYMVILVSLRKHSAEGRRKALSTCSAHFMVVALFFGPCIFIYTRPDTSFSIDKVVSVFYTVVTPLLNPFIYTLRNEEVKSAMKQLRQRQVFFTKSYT
Assay: OR4E2 CRE-NanoLuc luciferase reporter assay in transiently transfected HEK293T cells
Type: cell-based
Conditions: for response of OR4E2 to increasing concentrations of sulphur odorant (OR4E2 activation): seven concentrations 3-300 μM, 4 hours stimulation, luciferase activity, FIGS. 1A and 1B
Method: The experiments were performed using HEK293T cells (available e.g. from GE Healthcare) […] expressing the auxiliary protein hRTP1s, essential for efficient receptor trafficking to the plasma membrane (NPL 10, NPL 11; and NPL 12). The cell line was maintained in Dulbecco's modified Eagle Medium (DMEM, Euroclone) supplemented with 10% FBS (Fetal Bovine Serum, Euroclone cat. ECS0180L), 1% Penicillin/Streptomycin (Euroclone cat. B3001D), 50 μg/mL G418, […], and 10 μg/mL Zeocin.
The cDNA for OR4E2 was generated by custom gene synthesis (LifeTechnologies). The receptor DNA was then subcloned in frame 3′ from a transmembrane, localization epitope into a pcDNA5 expression vector (NPL 13). The correct identity of the receptor was checked by automated sequencing.
All sulphur odorants were prepared as 100 mM stock solutions using DMSO as a solvent and stored at −20″C. Copper(II) sulfate was prepared as an aqueous 30 mM stock solution. […]
The cDNA for the OR4E2 receptor was co-transfected with pNL(NlucP/CRE/Hygro) (Promega). […] The enzyme is about 100-fold brighter than either firefly (Photinus pyralis) or Renilla reniformis luciferase using a novel substrate, furimazine, to produce high intensity, glow-type luminescence. […]
24 hours post-transfection the medium was removed from the transfected cells and 30 μL of Tyrode's buffer containing the diluted sulphur odorant were added over 4 hours at 37° C. The cells were then transferred into an automated fluorometric imaging plate reader (FLIPR Tetra (registered trademark), Molecular Devices). […]
The data obtained from different well replicates (n=4) were analysed with Excel, ScreenWorks, and SigmaPiot 11, The responses of the receptor to the sulphur odorants were divided by the mean responses of the receptor towards Tyrode's buffer (fold of change: FOC). The mean and standard deviation of the resulting FOC values were calculated and plotted in vertical bar charts or concentration-response curves fitted by the SigmaPlot 11 software. […]

| SMILES | OR4E2 activator (used at 300 μM as activating sulphur odorant in Example 2) | response of OR4E2 to increasing concentrations of sulphur odorant (OR4E2 activation) |
| --- | --- | --- |
| CSCSC [2,4-dithiapentane] | OR4E2 activator | – |
| CC(C)(S)CCO [3-mercapto-3-methylbutanol] | – | positive effect |
| C=CCSSSCC=C [diallyl trisulfide] | – | positive effect |
